Experimental data: PubChem BioAssay AID602167 (The Scripps Research Institute Molecular Screening Center, 2012)
Active and inactive are the calls of the source. The rule behind the calls is not given here.

Molecular target: transactivating tegument protein VP16 (Human herpesvirus 1), as a GAL4-VP16 activation-domain luciferase reporter
Assay: VP16 transactivation inhibitor potency, dose response, counter-screen for SRC3 inhibitor project, cell-based, luminescence, high throughput, SRC3 series (AID 602167)
Details: VP16 transactivation luciferase reporter cells

SMILES	IC50
C=CC[n+]1c(-c2ccc(C)cc2)csc1Nc1ccc(NC(C)=O)cc1	> 35.9 µM (inactive)
Cc1nc(N)nc(N)c1-c1ccc(Cl)c(Cl)c1	> 11.9 µM (inactive)
Cn1cnc([N+](=O)[O-])c1Sc1nc(N)nc2c1ncn2C1OC(CO)C(O)C1O (configuration not stated)	7.47 µM
COC(=O)c1c(C)n(-c2ccc(OC)cc2)c2ccc(O)cc12	8.88 µM
COc1ccc(-c2nsc3c(N4CCCCC4)ncnc23)cc1	inactive
COc1ccc(-n2cnc3c(sc4nccc(N(C)C)c43)c2=O)cc1	inactive
O=C(NC(NC(=S)N1CCOCC1)C(Cl)(Cl)Cl)c1ccc(Cl)cc1 (configuration not stated)	> 35.9 µM (inactive)
Nc1ncnc(NCc2ccccc2)c1[N+](=O)[O-]	inactive
CC(=O)c1ccc(Nc2c3c(nc4ccccc24)CCCC3)cc1	inactive
CCn1ccnc1CN(C)Cc1cn[nH]c1-c1ccc(OC)c(F)c1	7.96 µM
Cc1cccc(CN2CCN(C(=O)CCl)CC2)c1	> 12 µM (inactive)
COc1ccccc1C(=O)N(CCC1CCCN1C)c1nc2ccccc2s1 (configuration not stated)	7.9 µM
Fc1ccc(CSc2nnc(-c3ccncc3)o2)cc1	3.81 µM
CCN(c1cccc(C)c1)c1ncnc2nc[nH]c12	inactive
O=C(Nc1cccnc1)c1ccc(C(=O)Nc2cccnc2)cc1	> 35.9 µM (inactive)
O=C(NCCCn1ccnc1)c1ccc(N2CCCCCC2)c([N+](=O)[O-])c1	inactive
CCn1nc(/C=C/c2ccccc2)nc2c(=O)n(C)c(=O)nc1-2	5.14 µM
Cc1c(/C(O)=C2/C(=O)C(=O)N(Cc3cccnc3)C2c2ccccn2)cnn1-c1ccccc1 (configuration not stated)	> 35.9 µM (inactive)
COc1cc(/C=N/NC(=Nc2ccc(C)cc2)c2nc3ccccc3s2)ccc1O	inactive
COc1cc(/C=C2\CC(C(C)(C)C)C/C(=C\c3cc(OC)c(OC)c(OC)c3)C2=O)cc(OC)c1OC (configuration not stated)	4.47 µM
Cc1cccc(Oc2sc(C(=O)c3ccccc3)c(N)c2C#N)c1	inactive
O=c1[nH]c2ccccc2n1C1CCN(C(c2cc3ccccc3o2)c2nnnn2Cc2ccccc2)CC1 (configuration not stated)	inactive

SMILES	IC50
O=C(CCl)NC(Cc1ccccc1)c1ccccc1 (configuration not stated)	inactive
c1csc(Cc2nn3c(-c4ccncc4)nnc3s2)c1	inactive
Cc1ncc(CO)c(/C=N/NC(=O)c2cc3c(s2)CCCC3)c1O	6.04 µM
Cc1cc(C(=O)CN2C(=O)c3ccccc3S2(=O)=O)c(C)n1C(C)C	inactive
Cc1cccc(NC(=O)c2cc(Cl)ccc2[N+](=O)[O-])c1	inactive
O=C(NC1CCCCC1)C(c1cccnc1)N(C(=O)CCl)c1cccc(Cl)c1 (configuration not stated)	6.03 µM
COc1cccc(NC(=O)CSc2nnc(-c3cc(C)n(-c4ccccc4)c3C)o2)c1	2.4 µM
O=C(COC(=O)c1ccc[nH]c1=O)Nc1ccc(N2CCCCC2)cc1	> 35.9 µM (inactive)
COc1cccc(/C=N/Nc2ccc([N+](=O)[O-])cn2)c1O	4.48 µM
N#Cc1c2ccc(O)cc2n2ccccc12	> 35.9 µM (inactive)
CCCC(=O)NC(c1ccc(Cl)cc1)c1ccc2cccnc2c1O (configuration not stated)	4.4 µM
O=C(N/N=C\c1ccc([N+](=O)[O-])o1)C1COc2ccccc2O1 (configuration not stated)	inactive
OCCN1CCN(C(=S)c2ccc(-c3ccccc3)cc2)CC1	> 35.9 µM (inactive)
O=C(Nc1ccc(OCC(=O)N2CCOCC2)cc1)c1cncc(Br)c1	inactive
O=C(NCc1ccccc1)c1c(Cl)nc(Cl)c(Cl)c1Cl	inactive
CN(C)/C=C/C(=O)c1ccc2noc(-c3ccccc3)c2c1	inactive
O=C(OCCC12CC3CC(CC(C3)C1)C2)c1ccc(NCc2cc(O)ccc2O)cc1	5.45 µM
CCOC(=O)c1cc2sccc2n1CC(=O)N1CCc2ccccc21	> 35.9 µM (inactive)
CCOc1cc(C(N)=O)cc(Br)c1OC	> 35.9 µM (inactive)
O=C(CCl)Nc1cccc(-c2cnc3ccccc3n2)c1	inactive
O=C(CNc1cccc([N+](=O)[O-])c1)N/N=C/c1ccc([N+](=O)[O-])o1	inactive
Cc1ccc(N=c2c([N+](=O)[O-])nn(-c3ccc4c(c3)OCCO4)n2O)cc1F	inactive

SMILES	IC50
COc1ccc2[nH]c(=O)c(CN(CCN3CCCC3)C(=O)Nc3ccccc3Cl)cc2c1	inactive
O=[N+]([O-])c1ccc(N(CCO)CCO)c2c1no[n+]2[O-]	5.59 µM
Cc1ccc(N=Nc2ccc3ccccc3c2O)cc1	inactive
Cc1ccc2nc(C(F)(F)F)c(C#N)c(N)c2c1	inactive
CC(=O)NC(c1cc(Cl)c2cccnc2c1O)C(C)C (configuration not stated)	inactive
Oc1ccc(C=NNc2ccccn2)c(O)c1	inactive
O=C(CC(Nc1ccc(Cl)cc1Cl)C(=O)O)c1ccccc1 (configuration not stated)	4.77 µM
Cc1nc([N+](=O)[O-])c(Sc2nc3ccccc3n2C)n1Cc1ccccc1	inactive
C(=NNc1ccc2ccccc2n1)c1ccccn1	inactive
CC(=O)c1cccc(-c2csc3ncnc(Sc4nnnn4C)c23)c1	6.89 µM
O=C(Nc1nc2cc3c(cc2s1)OCCO3)C1=COCCO1	7.78 µM
O=C(CCl)N(c1ccccc1)C1CCS(=O)(=O)C1 (configuration not stated)	inactive
COc1cc2oc(=O)cc(-c3ccc(-c4ccc(CO)cc4)cc3)c2c(OC)c1OC	5.56 µM
Cc1ccc(OCC(=O)c2cc(C)n(-c3ccccc3)c2C)c([N+](=O)[O-])n1	inactive
COc1ccc(COC(=O)C2=C(C)NC(=O)NC2c2ccc(F)cc2)cc1 (configuration not stated)	9.08 µM
Nc1nccc(-c2ccc(-n3cnc4ccccc43)cc2)n1	7.5 µM
CCOC(=O)C(=CNc1ccc(NC2=NCC(C)S2)cc1)C(=O)OCC (configuration not stated)	inactive
COc1cc2c(c(OC)c1OC)-c1ccc(SC)c(=O)cc1C(NC=O)CC2 (configuration not stated)	inactive
O=C(N/N=C\c1ccc([N+](=O)[O-])s1)c1cncc(Br)c1	6.45 µM
CC(=O)/C(N=Nc1ccc2c(c1)OCCO2)=C(\C)O	> 12 µM (inactive)
CCn1c2ccccc2c2cnc(N=CN(C)C)c(C#N)c21	inactive
COc1cc(C2c3cc4c(cc3C(OC3OC5COC(c6cccs6)OC5C(O)C3O)C3COC(=O)C23)OCO4)cc(OC)c1O (configuration not stated)	> 35.8 µM (inactive)

SMILES	IC50
COCCNC(=O)c1cc(-c2ccccn2)nc2ccc(S(=O)(=O)N3CCC(C)CC3)cc12	> 35.9 µM (inactive)
C/C(=N\NC(=S)Nc1cc(S(=O)(=O)N2CCOCC2)ccc1Cl)c1ccccc1F	inactive
Cc1ccc(C2=NN(C(=O)CCl)C(c3cccs3)C2)o1 (configuration not stated)	inactive
c1ccc(-c2noc(-c3ccc4ccccc4c3)n2)nc1	6.07 µM
CN1C(=O)C2(C(C#N)=C(N)N(c3cc(Cl)cc(Cl)c3)C3=C2C(=O)CC(C)(C)C3)c2ccccc21 (configuration not stated)	inactive
O=C(c1ccncc1)N(Cc1cc2ccccc2[nH]c1=O)C1CCCCC1	7.96 µM
CCOC(=O)C(C(C)=O)c1c(Br)c(O)c(O)c2c(C(=O)c3ccc(C)cc3)coc12 (configuration not stated)	4.28 µM
COc1cccc(F)c1C(C[N+](=O)[O-])c1c(N)n(C)c(=O)n(C)c1=O (configuration not stated)	5.01 µM
COc1ccc(C(C(=O)NC2CCCCC2)N(C(=O)CCl)c2ccc(OC)cc2)cc1 (configuration not stated)	6.59 µM
CCOc1ccc(-c2cc(C)n3nc(C(N)=O)cc3n2)cc1	inactive
CC(=O)c1cccc(NC(=O)Nc2ccc3c(c2)N(C)C(=O)CS3)c1	inactive
CC1(C)N=C(N)N=C(N)N1CCCCc1ccccc1	5.25 µM
CN(Cc1cnc2nc(N)nc(N)c2n1)c1ccc(C(=O)N[C@@H](CCC(=O)O)C(=O)O)cc1	> 35.9 µM (inactive)
COc1cc2c(cc1OC)C(C)N(C(=O)c1cccc([N+](=O)[O-])c1)CC2 (configuration not stated)	8.56 µM
Cc1ccc2occ(/C=N/NC(=O)c3ccccc3Br)c(=O)c2c1	9.36 µM
Cc1cc(-c2nnc(SCC(=O)Nc3ccccc3C(F)(F)F)o2)c(C)n1-c1ccccc1	> 35.9 µM (inactive)
CC(C)(C)n1ncc2c(=O)n(CC(=O)OCc3ccccc3)cnc21	inactive
NC(=S)N/N=C1\CCOc2ccc(Cl)cc21	inactive
CC(C)N(c1ccccc1)c1ccc(NC(=O)CCl)cc1	inactive
O=S(=O)(c1ccc(F)cc1)c1snnc1-c1ccccc1	inactive
CCCCC(=O)NC(c1ccc(Cl)cc1Cl)c1ccc2cccnc2c1O (configuration not stated)	4.78 µM
CC[C@@]1(O)C(=O)OCc2c1cc1n(c2=O)Cc2cc3c(NC(=O)CN)cccc3nc2-1	> 35.9 µM (inactive)

SMILES	IC50
CCCC(=O)NC(c1ccc(Cl)cc1Cl)c1ccc2cccnc2c1O (configuration not stated)	4.42 µM
CS(=O)c1nc(-c2ccc(Br)cc2)cc(-c2ccccc2)c1C#N (configuration not stated)	inactive
COc1cc2c(ccc3cc(OC)c(OC)c(O)c32)cc1O	inactive
COc1cccc(CNc2ncnc3ccc(-c4c(C)noc4C)cc23)c1	> 35.9 µM (inactive)
CCOc1ccc(/C=C2\SC(=S)N(CCC(=O)O)C2=O)cc1	> 35.9 µM (inactive)
COc1cc2[nH]c3c(Cl)ncnc3c2cc1OC	inactive
COc1ccc(/C=C2/SC(=S)N(CCC(=O)O)C2=O)cc1	> 35.9 µM (inactive)
O=C(NCCc1ccccc1)c1ccc2c(c1)OCCO2	5.83 µM
COc1cc(C(=O)N/N=C(\c2ccccc2)c2ccccn2)cc(OC)c1OC	7.23 µM
Cc1c(Cl)cccc1NC(=O)Nc1ccccc1C(N)=O	> 35.9 µM (inactive)
Cc1nc(N2CCC(C(N)=O)CC2)c2c(-c3cccs3)csc2n1	inactive
CC(=O)OCCN1c2ccccc2Sc2cnccc21	6.3 µM
C=CCOc1ccc(/C=C2\SC(=S)N(CCC(=O)O)C2=O)cc1	> 35.9 µM (inactive)
COc1cccc(-c2nnc3sc(C4CCCCC4)nn23)c1	9.52 µM
COC(=O)c1cccc2c1-c1ccccc1/C2=N/O	5.73 µM
CNc1ncnc(Sc2nc(N)nc3nc[nH]c23)c1[N+](=O)[O-]	4.85 µM
Cc1ccc(/C=C2/SC(=S)N(CCCC(=O)Nc3ccc(O)cc3)C2=O)cc1	inactive
CCCC(=O)NC(c1ccc2c(c1)OCO2)c1cc(Cl)c2cccnc2c1O (configuration not stated)	7.92 µM
CCCS(=O)(=O)Nc1ccc(Nc2c3ccccc3nc3ccccc23)c(OC)c1	> 35.9 µM (inactive)
